Measured values published in US6855348B2, “Insecticidal composition derived from plants” (priority 2000, dated 2005).
Several values for one entry are separate records, joined by “and”; a condition that tells them apart may be missing. Equal entries are not always repeated. Where two headings read alike, the source gives them in different places.

Legend:
[1] = tested on: Dermatophagoides farinae
Experimental: (§1) American house dust mite (Dermatophagoides farinae) and European house dust mite (Dermatophagoide pteronyssinus) were maintained at 75±5% RH (relative humidity) at 25±1° C., and were provided a feed mixture of fish meal and multi-vitamins in a ratio of 1 to 1 on a 12.5×10.5×5 cm container.
(§2) The starting concentration is important for the primary screening of bioactive compounds from plant extracts and oils. […] 1 mg of the methanol extracts or oils were suspended with 40 μl of methanol and were transferred to a colorless microtube (2 ml). The microtube was vertically shaken several times to disperse the contents to the wall and cap of the microtube and it was placed in a freeze dryer for 1 hour in order to volatilize the solvent. Twenty-five mites were placed on the prepared microtube, and all treatment groups were transferred to an incubator kept at […]. Active mites only were selected with a fine brush under a microscope. Mortalities were determined with a microscope at 24 hours and 48 hours after treatment. […] All tests were replicated four or more times. The percentage mortality was determined and transformed to arcsine square-root values for analysis of variance (ANOVA). Treatment means were compared and separated by Scheffe's test at the P=0.05 (SAS Institute, 1996). Means (±standard error) of untransformed data are reported. Controls received 40 μl of methanol.

[2] = tested on: Dermatophagoides pteronyssinus
Experimental: as §1, §2

[3] = tested on: Lasioderma serricorne; test: Insecticidal activity test, treated filter paper in petri dish; type: in vivo; conditions: adults, 24 hours
Experimental: (§3) Stored-product pests used in the present invention were adult Lasioderma serricome Fab., adult Sitophilus oryzae L. and adult Callosobruchus chinensis L., and it was selected insects were not exposed to any insecticide. L. serricorne was bred in a beaker(10 cm diameter, 15 cm height) with wheat bran, S. oryzae was bred in a platic container(20×20×15 cm) with peanuts, and was bred in a plastic container(26×30×20 cm) with red beans. All insects were maintained at 28±1° C., 55±5% RH(relative humidity) and 16:8 hr(day:night) light condition.
(§4) Right after treatment, paper was transferred to hood and put in hood for about 2 minutes to completely evaporate solvent, and then, the above paper was put on paper treated with 20 adult pests in petri dish and this dish was covered with a lid. 24 hours after insecticide activity was investigated. To faacilitate handling of adult pests by their reducing activity, L. sericorne was put at −4° C. for 2 minutes, S. oryzae was used without this treatment, and C. chinensis was selected by using sucking tube. Healthy pests used in test were selected right before 6 hours of test. They were maintained at 28±1° C., 50-60% RH and 16:8 hr(day:night) light condition.
(§5) Insecticidal activity of salicylaldehyde against stored-product pests was investigated by the insecticidal test of Test 6. Test was repeated 25 times for adult S. oryzae, and 10 times for adult L. serricorne and adult C. chinensis. 10 adult pests were used for each test.

[4] = tested on: Sitophilus oryzae; test: as above; type: in vivo, Sitophilus oryzae L.; conditions: adults, 24 hours
Experimental: as §3, §4, §5

[5] = tested on: Callosobruchus chinensis; test: as above; type: in vivo, Callosobruchus chinensis L.; conditions: adults, 24 hours
Experimental: as §3, §4, §5

[6] = tested on: stored-product pests; test: Insecticidal activity test, statements not resolved by pest species; type: in vivo; conditions: concentration of 1.25 mg
Experimental: as §3, §4

O=Cc1ccccc1O [salicylaldehyde]
Mortality (Means ± standard error, %) ([1]; 0.125 mg/tube, 24 hr): 20.0 ± 1.6c %
Mortality (Means ± standard error, %) ([1]; 0.125 mg/tube, 48 hr): 27.0 ± 3.8c %
Mortality (Means ± standard error, %) ([1]; 0.2 mg/tube, 24 hr): 22.0 ± 1.2c %
Mortality (Means ± standard error, %) ([1]; 0.2 mg/tube, 48 hr): 28.0 ± 1.6c %
Mortality (Means ± standard error, %) ([1]; 0.25 mg/tube, 24 hr): 26.0 ± 2.0c %
Mortality (Means ± standard error, %) ([1]; 0.25 mg/tube, 48 hr): 34.02.6bc %
Mortality (Means ± standard error, %) ([1]; 0.3 mg/tube, 24 hr): 27.0 ± 1.9c %
Mortality (Means ± standard error, %) ([1]; 0.3 mg/tube, 48 hr): 37.0 ± 1.9bc %
Mortality (Means ± standard error, %) ([1]; 0.4 mg/tube, 24 hr): 44.0 ± 2.8b %
Mortality (Means ± standard error, %) ([1]; 0.4 mg/tube, 48 hr): 48.0 ± 2.8b %
Mortality (Means ± standard error, %) ([1]; 0.5 mg/tube, 24 hr): 99.0%
Mortality (Means ± standard error, %) ([1]; 0.5 mg/tube, 48 hr): 100a %
Mortality (Means ± standard error, %) ([1]; 1 mg/tube, 24 hr): 100a %
Mortality (Means ± standard error, %) ([1]; 1 mg/tube, 48 hr): 100a %
Mortality (Means ± standard error, %) ([2]; 0.125 mg/tube, 24 hr): 0e %
Mortality (Means ± standard error, %) ([2]; 0.125 mg/tube, 48 hr): 0e %
Mortality (Means ± standard error, %) ([2]; 0.2 mg/tube, 24 hr): 6.0 ± 1.1d %
Mortality (Means ± standard error, %) ([2]; 0.2 mg/tube, 48 hr): 9.0 ± 1.0d %
Mortality (Means ± standard error, %) ([2]; 0.25 mg/tube, 24 hr): 7.0 ± 3.0d %
Mortality (Means ± standard error, %) ([2]; 0.25 mg/tube, 48 hr): 8.0 ± 2.8d %
Mortality (Means ± standard error, %) ([2]; 0.3 mg/tube, 24 hr): 22.0 ± 2.6c %
Mortality (Means ± standard error, %) ([2]; 0.3 mg/tube, 48 hr): 27.0 ± 2.5c %
Mortality (Means ± standard error, %) ([2]; 0.4 mg/tube, 24 hr): 44.0 ± 2.8b %
Mortality (Means ± standard error, %) ([2]; 0.4 mg/tube, 48 hr): 46.0 ± 2.6b %
Mortality (Means ± standard error, %) ([2]; 0.5 mg/tube, 24 hr): 89.0%
Mortality (Means ± standard error, %) ([2]; 0.5 mg/tube, 48 hr): 92.0 ± 1.6a %
Mortality (Means ± standard error, %) ([2]; 1 mg/tube, 24 hr): 100a %
Mortality (Means ± standard error, %) ([2]; 1 mg/tube, 48 hr): 100a %
Mortality (Means ± standard error, %) ([3]; 0.3125 mg/paper): 87% and 86.7 ± 3.3 b %
Mortality (Means ± standard error, %) ([3]; 0.625 mg/paper): 100%
Mortality (Means ± standard error, %) ([3]; 1.25 mg/paper): 100 a %
Mortality (Means ± standard error, %) ([3]; 2.5 mg/paper): 100 a %
Mortality (Means ± standard error, %) ([3]; 5 mg/paper): 100 a %
Mortality (Means ± standard error, %) ([4]; 0.3125 mg/paper): 7.0 ± 2.1 b %
Mortality (Means ± standard error, %) ([4]; 0.625 mg/paper): 97%
Mortality (Means ± standard error, %) ([4]; 1.25 mg/paper): 100 a %
Mortality (Means ± standard error, %) ([4]; 2.5 mg/paper): 100 a %
Mortality (Means ± standard error, %) ([4]; 5 mg/paper): 100 a %
Mortality (Means ± standard error, %) ([5]; 0.15625 mg/paper): 68.0 ± 3.9 b %
Mortality (Means ± standard error, %) ([5]; 0.3125 mg/paper): 97%
Mortality (Means ± standard error, %) ([5]; 0.625 mg/paper): 100%
Mortality (Means ± standard error, %) ([5]; 1.25 mg/paper): 100 a %
Mortality (Means ± standard error, %) ([5]; 2.5 mg/paper): 100 a %
Mortality (Means ± standard error, %) ([5]; 5 mg/paper): 100 a %
insecticidal activity against three species [6]: 100%
